Test results taken from patent US11173151B2, “Substituted triazole derivatives and uses thereof” (BAYER AKTIENGESELLSCHAFT, priority 2017, dated 2021).
Like-named read-outs stand apart in the source and are kept apart here.

What was measured:
human V1a receptor = target: T1, human V1a receptor (Homo sapiens, UniProt P37288); assay: Cellular in vitro assay for determining vasopressin receptor activity, V1a receptor cell line (CHO, aequorin luminescence); assay type: cell-based; settings: for IC50: CHO cell line transfected with human V1a receptor, [Arg]-vasopressin at EC50 concentration, read-out: IC50 hV1a; for ratio IC50 hV2/hV1a: selectivity ratio IC50 hV2 / IC50 hV1a
T1 construct: expressed in transfected cells; host or cells: CHO K1 (ATCC), also stably transfected with a modified aequorin
T1 sequence (P37288 whole entry): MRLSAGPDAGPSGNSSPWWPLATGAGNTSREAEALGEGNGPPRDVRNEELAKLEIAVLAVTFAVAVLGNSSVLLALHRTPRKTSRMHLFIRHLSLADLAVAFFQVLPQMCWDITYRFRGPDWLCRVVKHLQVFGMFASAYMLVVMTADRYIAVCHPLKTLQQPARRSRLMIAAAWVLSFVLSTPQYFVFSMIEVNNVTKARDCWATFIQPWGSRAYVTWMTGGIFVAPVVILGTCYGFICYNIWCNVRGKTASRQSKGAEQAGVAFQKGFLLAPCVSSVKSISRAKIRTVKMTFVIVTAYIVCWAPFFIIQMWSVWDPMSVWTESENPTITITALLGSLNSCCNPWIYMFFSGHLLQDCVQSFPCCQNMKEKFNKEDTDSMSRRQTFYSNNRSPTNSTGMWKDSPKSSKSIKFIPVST
Method in brief: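 Antagonism is measured in stable CHO K1 transfectants coexpressing the Gαq-coupled receptor and a calcium-sensitive aequorin photoprotein. Agonist challenge uses [Arg]-vasopressin at EC50 after a 10-minute compound exposure; IC50 values come from the luminescence signal.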

human V2 receptor = target: T2, human V2 receptor (Homo sapiens, UniProt P30518); assay: Cellular in vitro assay for determining vasopressin receptor activity, V2 receptor cell line (CHO, CRE-luciferase); assay type: cell-based; settings: CHO cell line transfected with human V2 receptor, [Arg8]-vasopressin at EC50 concentration, read-out: IC50 hV2
T2 construct: expressed in transfected cells; host or cells: CHO K1 (ATCC) expressing firefly luciferase under a CRE-responsive promoter
T2 sequence (P30518 whole entry): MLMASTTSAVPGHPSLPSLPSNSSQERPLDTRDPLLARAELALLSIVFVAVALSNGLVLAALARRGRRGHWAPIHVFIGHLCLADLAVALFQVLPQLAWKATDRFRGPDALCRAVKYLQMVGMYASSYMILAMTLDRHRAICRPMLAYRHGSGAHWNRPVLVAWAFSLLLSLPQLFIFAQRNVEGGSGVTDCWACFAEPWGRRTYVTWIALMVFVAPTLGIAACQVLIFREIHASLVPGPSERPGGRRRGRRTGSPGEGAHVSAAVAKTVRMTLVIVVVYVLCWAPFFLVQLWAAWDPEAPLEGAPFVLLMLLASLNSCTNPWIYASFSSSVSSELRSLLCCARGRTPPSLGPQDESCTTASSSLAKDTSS

| SMILES | IC50 (human V1a receptor) | ratio IC50 hV2/hV1a (human V1a receptor) | IC50 (human V2 receptor; 3 hours) | IC50 (human V2 receptor) |
| --- | --- | --- | --- | --- |
| CN1CCCN(C(=O)c2ccccc2-n2cnc(Cn3nc(-c4ccc(Cl)cc4)n(C[C@H](O)C(F)(F)F)c3=O)n2)CC1 [Example 331, 5-(4-Chlorophenyl)-2-[(1-{2-[(4-methyl-1,4-diazepan-1-yl)carbonyl]phenyl}-1H-1,2,4-triazol-3-yl)methyl]-4-[(2S)-3,3,3-trifluoro-2-hydroxypropyl]-2,4-dihydro-3H-1,2,4-triazol-3-one] | 33 nM | 233.3 | 7700 nM |  |
| CC1(C)CN(c2ccncc2-n2cnc(Cn3nc(-c4ccc(Cl)cc4)n(C[C@H](O)C(F)(F)F)c3=O)n2)CCN1 [Example 14, 5-(4-Chlorophenyl)-2-({1-[4-(3,3-dimethylpiperazin-1-yl)pyridin-3-yl]-1H-1,2,4-triazol-3-yl}methyl)-4-[(2S)-3,3,3-trifluoro-2-hydroxypropyl]-2,4-dihydro-3H-1,2,4-triazol-3-one] | 278 nM | 19.2 | 5330 nM |  |
| O=C(NCC(F)(F)F)c1cccnc1-n1nc(Cn2nc(-c3ccc(Cl)cc3)n(C[C@H](O)C(F)(F)F)c2=O)nc1C(=O)N1CCS(=O)(=O)CC1 [Example 528, 2-{3-({3-(4-Chlorophenyl)-5-oxo-4-[(2S)-3,3,3-trifluoro-2-hydroxypropyl]-4,5-dihydro-1H-1,2,4-triazol-1-yl}methyl)-5-[(1,1-dioxidothiomorpholin-4-yl)carbonyl]-1H-1,2,4-triazol-1-yl}-N-(2,2,2-trifluoroethyl)pyridine-3-carboxamide] | 75.5 nM | 10.3 |  | 780 nM |
| CC[C@@H](C)C(=O)Nc1ncccc1-n1cnc(Cn2nc(-c3ccc(Cl)cc3)n(C[C@H](O)C(F)(F)F)c2=O)n1 [Example 126] | 36 nM | 6.9 | 250 nM |  |
| NC(=O)CCNc1ccncc1-n1cnc(Cn2nc(-c3ccc(Cl)cc3)n(C[C@H](O)C(F)(F)F)c2=O)n1 [Example 21, N^3-{3-[3-({3-(4-Chlorophenyl)-5-oxo-4-[(2S)-3,3,3-trifluoro-2-hydroxypropyl]-4,5-dihydro-1H-1,2,4-triazol-1-yl}methyl)-1H-1,2,4-triazol-1-yl]pyridin-4-yl}-beta-alaninamide] | 840 nM | 1.8 | 1480 nM |  |
| O=C(Nc1ncccc1-n1cnc(Cn2nc(-c3ccc(Cl)cc3)n(C[C@H](O)C(F)(F)F)c2=O)n1)c1cnccn1 [Example 104] | 8.25 nM | 193.9 | 1600 nM |  |
| CC(C)(O)CNc1ncccc1-n1cnc(Cn2nc(-c3ccc(Cl)cc3)n(C[C@H](O)C(F)(F)F)c2=O)n1 [Example 67, 5-(4-Chlorophenyl)-2-[(1-{2-[(2-hydroxy-2-methylpropyl)amino]pyridin-3-yl}-1H-1,2,4-triazol-3-yl)methyl]-4-[(2S)-3,3,3-trifluoro-2-hydroxypropyl]-2,4-dihydro-3H-1,2,4-triazol-3-one] | 76.5 nM | 2.0 | 157 nM |  |
| O=C(N[C@H]1C[C@H]1F)c1ncccc1-n1cnc(Cn2nc(-c3ccc(Cl)cc3)n(C[C@H](O)C(F)(F)F)c2=O)n1 (racemic) [Example 456, 3-[3-({3-(4-Chlorophenyl)-5-oxo-4-[(2S)-3,3,3-trifluoro-2-hydroxypropyl]-4,5-dihydro-1H-1,2,4-triazol-1-yl}methyl)-1H-1,2,4-triazol-1-yl]-N-[2-fluorocyclopropyl]pyridine-2-carboxamide] | 12 nM | 65.4 |  | 785 nM |
| O=C(CC1CCCCC1)Nc1ncccc1-n1cnc(Cn2nc(-c3ccc(Cl)cc3)n(C[C@H](O)C(F)(F)F)c2=O)n1 [Example 105] | 130 nM | 8.5 | 1100 nM |  |
| O=C1CCC(CNc2ccncc2-n2cnc(Cn3nc(-c4ccc(Cl)cc4)n(C[C@H](O)C(F)(F)F)c3=O)n2)N1 (mixture of isomers) [Example 7, 5-(4-Chlorophenyl)-2-({1-[4-({[5-oxopyrrolidin-2-yl]methyl}amino)pyridin-3-yl]-1H-1,2,4-triazol-3-yl}methyl)-4-[(2S)-3,3,3-trifluoro-2-hydroxypropyl]-2,4-dihydro-3H-1,2,4-triazol-3-one] | 1750 nM | 2.2 | 3850 nM |  |
| O=C1NCC2(CN(C(=O)c3ccccc3-n3cnc(Cn4nc(-c5ccc(Cl)cc5)n(C[C@H](O)C(F)(F)F)c4=O)n3)C2)N1 [Example 190, 2-{2-[3-({3-(4-Chlorophenyl)-5-oxo-4-[(2S)-3,3,3-trifluoro-2-hydroxypropyl]-4,5-dihydro-1H-1,2,4-triazol-1-yl}methyl)-1H-1,2,4-triazol-1-yl]benzoyl}-2,5,7-triazaspiro[3.4]octan-6-one] | 300 nM | 23.5 | 7050 nM |  |
| CCc1cc(C(=O)Nc2ncccc2-n2cnc(Cn3nc(-c4ccc(Cl)cc4)n(C[C@H](O)C(F)(F)F)c3=O)n2)no1 [Example 139] | 20.5 nM | 22.7 | 465 nM |  |
| O=C(Nc1ncccc1-n1cnc(Cn2nc(-c3ccc(Cl)cc3)n(C[C@H](O)C(F)(F)F)c2=O)n1)C1CC1F (single isomer, unassigned) [Example 78] | 19.5 nM | 187.2 | 3650 nM |  |
| CC1(NC(=O)c2cccc(Cl)c2-n2cnc(Cn3nc(-c4ccc(Cl)cc4)n(C[C@H](O)C(F)(F)F)c3=O)n2)CC1 [Example 388, 3-Chloro-2-[3-({3-(4-chlorophenyl)-5-oxo-4-[(2S)-3,3,3-trifluoro-2-hydroxypropyl]-4,5-dihydro-1H-1,2,4-triazol-1-yl}methyl)-1H-1,2,4-triazol-1-yl]-N-(1-methylcyclopropyl)benzamide] | 7.15 nM | 216.8 | 1550 nM |  |
| O=c1n(Cc2ncn(-c3cnccc3NCC3CS(=O)(=O)C3)n2)nc(-c2ccc(Cl)cc2)n1C[C@H](O)C(F)(F)F [Example 18, 5-(4-Chlorophenyl)-2-{[1-(4-{[(1,1-dioxidothietan-3-yl)methyl]amino}pyridin-3-yl)-1H-1,2,4-triazol-3-yl]methyl}-4-[(2S)-3,3,3-trifluoro-2-hydroxypropyl]-2,4-dihydro-3H-1,2,4-triazol-3-one] | 23.7 nM | 82.3 | 1950 nM |  |

Results, then the molecule that gave them:

| IC50 (human V1a receptor) | ratio IC50 hV2/hV1a (human V1a receptor) | IC50 (human V2 receptor; 3 hours) | IC50 (human V2 receptor) | SMILES |
| --- | --- | --- | --- | --- |
| 4.9 nM | 295.9 | 1450 nM |  | Cc1nonc1C(=O)Nc1ncccc1-n1cnc(Cn2nc(-c3ccc(Cl)cc3)n(C[C@H](O)C(F)(F)F)c2=O)n1 [Example 133] |
| 2.25 nM | 29.1 | 65.5 nM |  | O=C(Nc1cc(F)ccc1F)c1ccccc1-n1cnc(Cn2nc(-c3ccc(Cl)cc3)n(C[C@H](O)C(F)(F)F)c2=O)n1 [Example 304, 2-[3-({3-(4-Chlorophenyl)-5-oxo-4-[(2S)-3,3,3-trifluoro-2-hydroxypropyl]-4,5-dihydro-1H-1,2,4-triazol-1-yl}methyl)-1H-1,2,4-triazol-1-yl]-N-(2,5-difluorophenyl)benzamide] |
| 7.05 nM | 48.2 | 340 nM |  | O=C(NCc1cccc(F)c1)c1ccccc1-n1cnc(Cn2nc(-c3ccc(Cl)cc3)n(C[C@H](O)C(F)(F)F)c2=O)n1 [Example 236, 2-[3-({3-(4-Chlorophenyl)-5-oxo-4-[(2S)-3,3,3-trifluoro-2-hydroxypropyl]-4,5-dihydro-1H-1,2,4-triazol-1-yl}methyl)-1H-1,2,4-triazol-1-yl]-N-(3-fluorobenzyl)benzamide] |
| 4.45 nM | 19.6 | 87 nM |  | Cc1cc(NC(=O)c2ccccc2-n2cnc(Cn3nc(-c4ccc(Cl)cc4)n(C[C@H](O)C(F)(F)F)c3=O)n2)cnc1F [Example 250, 2-[3-({3-(4-Chlorophenyl)-5-oxo-4-[(2S)-3,3,3-trifluoro-2-hydroxypropyl]-4,5-dihydro-1H-1,2,4-triazol-1-yl}methyl)-1H-1,2,4-triazol-1-yl]-N-(6-fluoro-5-methylpyridin-3-yl)benzamide] |
| 6.5 nM | 138.5 | 900 nM |  | O=C(c1ccccc1-n1cnc(Cn2nc(-c3ccc(Cl)cc3)n(C[C@H](O)C(F)(F)F)c2=O)n1)N1CCCCCCC1 [Example 359, 2-({1-[2-(Azocan-1-ylcarbonyl)phenyl]-1H-1,2,4-triazol-3-yl}methyl)-5-(4-chlorophenyl)-4-[(2S)-3,3,3-trifluoro-2-hydroxypropyl]-2,4-dihydro-3H-1,2,4-triazol-3-one] |
| 1.01 nM | 118.8 | 120 nM |  | O=C(NCC1CC1)c1ccccc1-n1cnc(Cn2nc(-c3ccc(Cl)cc3)n(C[C@H](O)C(F)(F)F)c2=O)n1 [Example 325, 2-[3-({3-(4-Chlorophenyl)-5-oxo-4-[(2S)-3,3,3-trifluoro-2-hydroxypropyl]-4,5-dihydro-1H-1,2,4-triazol-1-yl}methyl)-1H-1,2,4-triazol-1-yl]-N-(cyclopropylmethyl)benzamide] |
| 3.5 nM | 64.4 | 225 nM |  | O=C(Nc1cccnc1-n1cnc(Cn2nc(-c3ccc(Cl)cc3)n(C[C@H](O)C(F)(F)F)c2=O)n1)C1CC1(F)F (mixture of isomers) [Example 41, N-{2-[3-({3-(4-Chlorophenyl)-5-oxo-4-[(2S)-3,3,3-trifluoro-2-hydroxypropyl]-4,5-dihydro-1H-1,2,4-triazol-1-yl}methyl)-1H-1,2,4-triazol-1-yl]pyridin-3-yl}-2,2-difluorocyclopropanecarboxamide] |
